The source of these data is patent publication US11344634B2, “Activity based probe and uses thereof for imaging” (Yissum Research Development Company of the Hebrew …, priority 2016, dated 2022).

Data set [1] concerns the target T1, Recombinant human Cathepsin L (Homo sapiens, UniProt P07711).
T1 construct: made in house
Kind of data set: Recombinant cathepsin labeling, competition assay, iodinated probes. The class given is biochemical. To be noted: probe 2 hour, then GB123 30 minutes. How it is done:
(§1) Recombinant cathepsin labeling, competition assay: Recombinant human Cathepsin L (0.5 μg), Cathepsin B (0.5 μg) were incubated the indicated concentrations of targeted or control iodinated activity based probes (CT-ABP) in reaction buffer (50 mM acetate, 2 mM DTT and 5 mM MgCl2, pH 5.5) for 120 minutes at 37° C. After probe incubation, residual cathepsin activity was labeled with GB123 for 30 minutes. The reaction was stopped by addition of sample buffer ×4 (40% glycerol, 0.2 M Tris/HCl, pH 6.8, 20% beta-mercaptoethanol, 12% SDS and 0.4 mg/ml bromophenol blue). Samples were then boiled, separated on a 12.5% SDS gel and scanned for fluorescence by a Typhoon scanner FLA 9500 at excitation/emission wavelengths of 645/670 nm.
(§2) The biochemical evaluation of the new probes started with evaluation for their ability to bind recombinant human cathepsins B or Cathepsin L. Recombinant human cathepsins B was incubated with increasing concentrations of the probes for 2 hour. Residual activity was detected by a fluorescently labeled cathepsin ABP GB 123 that was added to samples for 30 minutes at r.t. […] Next, residual cathepsins activity was labeled by GB123 1 μM during 2 hours. Cell lysates were separated on SDS-PAGE followed by scanning the gel for fluorescence to visualize labeling of residual cathepsins activity by GB123 (FIGS. 11C and 11F).
(§3) Recombinant human cathepsins B was incubated with increasing concentrations of the probes for 2 hour. Residual activity was detected by a fluorescently labeled cathepsin ABP that was added to samples for 30 minutes at r.t. The free probe was separated from the enzyme-probe complex by SDS PAGE, the detection of the probe-enzyme complex was done by a fluorescent scanning of the gel at Cy5 fluorescence, FIG. 12. […] To assure that the binding is dependent on protease activity, a control were performed HG87, HG94 and HG97 lacking the reactive moiety. […] Evaluation of I-CT-ABPs in intact cells. […] Next, residual cathepsins activity was labeled by GB123 1 μM during 2 hours. Cell lysates were separated on SDS-PAGE followed by scanning the gel for fluorescence at: 645/670 nm to visualize labeling of residual cathepsins activity by GB123 (FIG. 12E). […] Recombinant human cathepsins B was incubated with increasing concentrations of the Cy5 labelled probes for 2 hour. The free probe was separated from the enzyme-probe complex by SDS PAGE, the detection of the probe-enzyme complex was done by a fluorescent scanning of the gel at Cy5 fluorescence. […] The binding of the all the Cy5 labelled probes occur in an activity-dependent manner. Direct labeling in intact cells. The assay was carried out by incubation of NIH-3T3 cells with Cy5 labelled iodine tagged probes for 24 hours. Cell lysates were separated on SDS-PAGE followed by scanning the gel for fluorescence at: 645/670 nm to visualize labeling of residual cathepsins activity by GB123. […] For the PEGylated I-CT-ABP HG93 and HG32 also observed that recombinant cathepsin activity and cell permeability, it's difficult to quantify the selective inhibition due to enhanced permeation and retention (EPR) effect.

Data set [2] deals with T2, Recombinant human Cathepsin B (Homo sapiens, UniProt P07858).
T2 construct: made in house
The data set is described as above. The class given is biochemical. As to conditions: probe 2 hour, then GB123 30 minutes. How it is done: as §1, §2, §3

The subject of the next data set is NIH-3T3 cells. Kind of data set: In vitro cytotoxicity, methylene blue assay, I-CT-ABPs. To be noted: NIH-3T3, 10 μM, 48 hours. The class given is cell-based, mouse. How it is done:
In vitro Cytotoxicity Assays. Methylene Blue assays were performed in 96-well plates; NIH-3T3 cells (5×10^3 cells/well) were seeded in a 96-well plate one day before treatment. Cells were treated with indicated concentrations of targeted IABNs and non-targeted nanomaterials that were pre-dissolved in 0.1% DMSO in the culture medium. Cells were incubated for 24 h and 48 h and cells were fixed with 2.5% glutaraldehyde incubation for 10 min. Cells were washed with water and borate buffer (0.1M, pH=8.5), Cell number was determined by staining cells with the addition of 100 μl per well of 1% Methylene Blue in borate buffer, followed by incubation at room temperature for at least 1 hour. The stain was aspirated and the plates rinsed by immersion in water, followed by immersion in deionized water. The plates were air-dried and then the stain was released from cells by the addition of 200 μl/well 0.1 N HCl solutions. After 1 hour incubation at 37° C., the absorbance of each […] at 620 nm was determined on a Cytation 3 microplate reader.
Cytotoxicity study of the I-CT-ABPs, the toxic response to the systematically varied physico-chemical properties of successive PAMAM dendrimers. In vitro cytotoxicity of I-CT-ABPs to NIH-3T3 cell lines was investigated. Viability assay was performed for assessment of the cytotoxicity of each I-CT-ABP to the NIH-3T3 cell lines using the methylene blue method.

T1 sequence (P07711 114-333): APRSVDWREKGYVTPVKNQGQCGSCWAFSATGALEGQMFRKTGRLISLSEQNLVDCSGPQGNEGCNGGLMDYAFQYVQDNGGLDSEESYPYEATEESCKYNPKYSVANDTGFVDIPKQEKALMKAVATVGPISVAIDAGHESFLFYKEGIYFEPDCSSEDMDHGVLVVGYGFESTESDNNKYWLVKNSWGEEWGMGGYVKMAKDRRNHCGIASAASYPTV

(IPA)16(PEG-750)16-G3 [HG97]: the “binding to recombinant cathepsin L, competitive assay” value (shortened to “binding to recombinant cathepsin L”) in data set [1] is recorded as “no inhibition was detected”. Further, the “binding to recombinant cathepsin B, competitive assay” value (from here on “binding to recombinant cathepsin B”) in data set [2] was “no inhibition was detected”.
For the substance (IPA)16(PEG-4)16-G3 [HG94], the “binding to recombinant cathepsin L” value in data set [1] is given as “no inhibition was detected”. Besides, in data set [2], the “binding to recombinant cathepsin B” value was “no inhibition was detected”.
Consider (IPA)16(NH2)16-G3 [HG87], for which the “binding to recombinant cathepsin L” value in data set [1] was “no inhibition was detected”. Moreover, the “binding to recombinant cathepsin B” value in data set [2] was “no inhibition was detected”. Moreover, in the data set with NIH-3T3 cells, the “toxicity (viability assay)” value is on record as “slight toxicity”.
